According to PubChem BioAssay AID256 (DTP/NCI, 2004):
Values joined by “and” are separate entries in the source; they are usually repeats but may differ in a detail not shown here. Equal entries are not always repeated. Toxic doses and inconclusive results are not listed. How the source made its calls: active means survival T/C of 150% or more; inactive means T/C below 125% in these data.

Tested on: CD2F1 mice, L1210 leukemia ip, survival T/C
Experiment: NCI In Vivo Anticancer Drug Screen. Data for tumor model L1210 Leukemia (intraperitoneal) in CD2F1 (CDF1) mice
Conditions: higher = longer survival
How it was run: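 Tumor-bearing mice (transplanted tumor) were split into treated and vehicle control groups, and the measured endpoint of each treated group was divided by that of its vehicle controls.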

[1] = endpoint: mean survival time, dose: 100.0 mg/kg/injection, schedule: Q01DX009 (ip), vehicle: saline with Tween-80
[2] = endpoint: mean survival time, dose: 200.0 mg/kg/injection, schedule: Q01DX009 (ip), vehicle: saline with Tween-80
[3] = endpoint: mean survival time, dose: 400.0 mg/kg/injection, schedule: Q01DX009 (ip), vehicle: saline with Tween-80
[4] = endpoint: mean survival time, dose: 100.0 mg/kg/injection, schedule: Q04DX003 (ip), vehicle: saline with Tween-80
[5] = endpoint: mean survival time, dose: 200.0 mg/kg/injection, schedule: Q04DX003 (ip), vehicle: saline with Tween-80
[6] = endpoint: mean survival time, dose: 400.0 mg/kg/injection, schedule: Q04DX003 (ip), vehicle: saline with Tween-80
[7] = endpoint: mean survival time, dose: 25.0 mg/kg/injection, schedule: Q01DX009 (ip), vehicle: saline with Tween-80
[8] = endpoint: mean survival time, dose: 50.0 mg/kg/injection, schedule: Q01DX009 (ip), vehicle: saline with Tween-80
[9] = endpoint: mean survival time, dose: 50.0 mg/kg/injection, schedule: Q04DX002 (ip), vehicle: saline with Tween-80
[10] = endpoint: mean survival time, dose: 25.0 mg/kg/injection, schedule: Q04DX002 (ip), vehicle: saline with Tween-80

Measured: T/C

CC(C)[N-]C(C)C.CC(C)[N-]C(C)C.[Cl][Pt+2][Cl]
inactive: endpoint: mean survival time, dose: 10.0 mg/kg/injection, schedule: Q04DX003 (ip), vehicle: saline with Tween-80 102 % of control | endpoint: mean survival time, dose: 20.0 mg/kg/injection, schedule: Q04DX003 (ip), vehicle: saline with Tween-80 97 % of control | endpoint: mean survival time, dose: 40.0 mg/kg/injection, schedule: Q04DX003 (ip), vehicle: saline with Tween-80 105 % of control | endpoint: mean survival time, dose: 80.0 mg/kg/injection, schedule: Q04DX003 (ip), vehicle: saline with Tween-80 97 % of control | endpoint: mean survival time, dose: 160.0 mg/kg/injection, schedule: Q04DX003 (ip), vehicle: saline with Tween-80 97 % of control

CC(CN(C)C)CN1c2ccccc2Sc2ccc(C(F)(F)F)cc21 (stereo unspecified)
inactive: endpoint: mean survival time, dose: 0.63 mg/kg/injection, schedule: Q04DX003 (ip), vehicle: saline 94 % of control | endpoint: mean survival time, dose: 1.25 mg/kg/injection, schedule: Q04DX003 (ip), vehicle: saline 96 % of control | endpoint: mean survival time, dose: 2.5 mg/kg/injection, schedule: Q04DX003 (ip), vehicle: saline 91 % of control | endpoint: mean survival time, dose: 6.25 mg/kg/injection, schedule: Q01DX009 (ip), vehicle: saline 91 % of control | endpoint: mean survival time, dose: 12.5 mg/kg/injection, schedule: Q01DX009 (ip), vehicle: saline 102 % of control

Cc1ccc([N+](=O)[O-])cc1NC(=O)NNC(=O)CNC(=O)c1ccc(Cl)cc1
inactive: [1] 88 % of control | [2] 94 % of control | [3] 107 % of control

[NH2-].[NH2-].[NH2-].[NH2-].[NH2-].[NH2-].[Ru+6]
inactive: endpoint: mean survival time, dose: 12.5 mg/kg/injection, schedule: Q04DX002 (ip), vehicle: saline 86 % of control

O=C(O)c1cc(-c2ccc(Cl)cc2)nc2c1ccc1ccccc12
inactive: endpoint: mean survival time, dose: 100.0 mg/kg/injection, schedule: Q01DX001 (ip), vehicle: saline 102 % of control | endpoint: mean survival time, dose: 200.0 mg/kg/injection, schedule: Q01DX001 (ip), vehicle: saline 97 % of control

CCOC(CS(=O)(=O)CC(N)=O)OCC
inactive: [4] 98 % of control | [5] 93 % of control | [6] 104 % of control

O=C(O)C(O)C(O)C(O)C(O)C(O)CO (stereo unspecified)
inactive: endpoint: mean survival time, dose: 100.0 mg/kg/injection, schedule: Q01DX009 (ip), vehicle: saline 98 % of control | endpoint: mean survival time, dose: 200.0 mg/kg/injection, schedule: Q01DX009 (ip), vehicle: saline 98 % of control | endpoint: mean survival time, dose: 400.0 mg/kg/injection, schedule: Q01DX009 (ip), vehicle: saline 97 % of control

O=C(CI)NCc1cn(C2CC(O)C(CO)O2)c(=O)[nH]c1=O (stereo unspecified)
inactive: endpoint: mean survival time, dose: 4.0 mg/kg/injection, schedule: Q01DX005 (ip), vehicle: water 106 % of control | endpoint: mean survival time, dose: 8.0 mg/kg/injection, schedule: Q01DX005 (ip), vehicle: water 114 % of control | endpoint: mean survival time, dose: 16.0 mg/kg/injection, schedule: Q01DX005 (ip), vehicle: water 106 % of control | endpoint: mean survival time, dose: 32.0 mg/kg/injection, schedule: Q01DX005 (ip), vehicle: water 111 % of control | endpoint: mean survival time, dose: 64.0 mg/kg/injection, schedule: Q01DX005 (ip), vehicle: water 114 % of control

COc1ccc(C=Nc2ccc3c(c2)OCO3)cc1Br
inactive: [7] 98 % of control | [8] 97 % of control | [1] 103 % of control

COC1=C(Br)C(O)C2(C=C1Br)CC(C(=O)NCCCCNC(=O)C1=NOC3(C=C(Br)C(OC)=C(Br)C3O)C1)=NO2 (stereo unspecified)
inactive: [9] 94 % of control | endpoint: mean survival time, dose: 100.0 mg/kg/injection, schedule: Q04DX002 (ip), vehicle: saline with Tween-80 94 % of control | endpoint: mean survival time, dose: 200.0 mg/kg/injection, schedule: Q04DX002 (ip), vehicle: saline with Tween-80 97 % of control | endpoint: mean survival time, dose: 400.0 mg/kg/injection, schedule: Q04DX002 (ip), vehicle: saline with Tween-80 86 % of control

CCCCCCC(C)=O
inactive: [4] 98 % of control | [5] 96 % of control | [6] 91 % of control

CC(=O)COc1cccc(C)c1
inactive: [4] 100 % of control | [5] 103 % of control | [6] 93 % of control

[Cl][Hg][c]1ccc2ccccc2c1
inactive: endpoint: mean survival time, dose: 12.5 mg/kg/injection, schedule: Q04DX002 (ip), vehicle: saline with Tween-80 90 % of control | [10] 102 % of control | [9] 111 % of control

O=C(Nc1ccc(Cl)cc1)c1cc(Br)ccc1O
inactive: [4] 92 % of control | [5] 88 % of control | [6] 92 % of control

O=C1NCC(Br)C(=O)N1 (stereo unspecified)
inactive: endpoint: mean survival time, dose: 6.25 mg/kg/injection, schedule: Q01DX009 (ip), vehicle: saline + Tween-80 + alcohol 102 % of control | endpoint: mean survival time, dose: 12.5 mg/kg/injection, schedule: Q01DX009 (ip), vehicle: saline + Tween-80 + alcohol 100 % of control and 109 % of control | endpoint: mean survival time, dose: 12.5 mg/kg/injection, schedule: Q01DX009 (ip), vehicle: saline with Tween-80 93 % of control | endpoint: mean survival time, dose: 25.0 mg/kg/injection, schedule: Q01DX009 (ip), vehicle: saline + Tween-80 + alcohol 93 % of control and 100 % of control | [7] 96 % of control | endpoint: mean survival time, dose: 50.0 mg/kg/injection, schedule: Q01DX009 (ip), vehicle: saline + Tween-80 + alcohol 102 % of control | [8] 94 % of control | endpoint: mean survival time, dose: 100.0 mg/kg/injection, schedule: Q01DX009 (ip), vehicle: saline + Tween-80 + alcohol 101 % of control and 105 % of control | [1] 102 % of control | endpoint: mean survival time, dose: 200.0 mg/kg/injection, schedule: Q01DX009 (ip), vehicle: saline + Tween-80 + alcohol 113 % of control and 100 % of control | [2] 90 % of control | endpoint: mean survival time, dose: 400.0 mg/kg/injection, schedule: Q01DX009 (ip), vehicle: saline + Tween-80 + alcohol 86 % of control

O=C([O][Bi]([c]1ccccc1)[c]1ccccc1)c1ccccc1
inactive: endpoint: median survival time, dose: 6.25 mg/kg/injection, schedule: Q01DX009 (ip), vehicle: Klucel (hydroxypropylcellulose) (HPC) 97 % of control | endpoint: median survival time, dose: 12.5 mg/kg/injection, schedule: Q01DX009 (ip), vehicle: Klucel (hydroxypropylcellulose) (HPC) 95 % of control | endpoint: median survival time, dose: 25.0 mg/kg/injection, schedule: Q01DX009 (ip), vehicle: Klucel (hydroxypropylcellulose) (HPC) 101 % of control

Nc1ncnc2c1ncn2C1OC(C(N)C(=O)O)C(O)C1O (stereo unspecified)
inactive: endpoint: mean survival time, dose: 6.25 mg/kg/injection, schedule: Q01DX005 (ip), vehicle: distilled water + Tween-80 101 % of control | endpoint: mean survival time, dose: 12.5 mg/kg/injection, schedule: Q01DX005 (ip), vehicle: distilled water + Tween-80 96 % of control | endpoint: mean survival time, dose: 25.0 mg/kg/injection, schedule: Q01DX005 (ip), vehicle: distilled water + Tween-80 98 % of control | endpoint: mean survival time, dose: 50.0 mg/kg/injection, schedule: Q01DX005 (ip), vehicle: distilled water + Tween-80 98 % of control | endpoint: mean survival time, dose: 100.0 mg/kg/injection, schedule: Q01DX005 (ip), vehicle: distilled water + Tween-80 103 % of control

COC(=O)C(Cc1ccc(O)cc1)NC(=O)C(C)NC(=O)OCc1ccccc1 (stereo unspecified)
inactive: [1] 92 % of control | [2] 93 % of control | [3] 88 % of control

O=C(COc1ccc(Cl)c(Cl)c1)NCc1cccc(Cl)c1
inactive: [4] 95 % of control | [5] 93 % of control | [6] 95 % of control

CCN=NNc1ccc(C)cc1
inactive: [8] 114 % of control | [1] 106 % of control | [4] 102 % of control | [5] 100 % of control

CCOc1ccc(-n2c(=O)c(N=Nc3ccccc3)c(O)n(-c3ccc(C)cc3)c2=S)cc1
inactive: endpoint: mean survival time, dose: 100.0 mg/kg/injection, schedule: Q01DX001 (ip), vehicle: saline with Tween-80 97 % of control | endpoint: mean survival time, dose: 200.0 mg/kg/injection, schedule: Q01DX001 (ip), vehicle: saline with Tween-80 89 % of control

CCC1(CC)C=CCC/C1=N\NS(=O)(=O)c1ccc(C)cc1
inactive: [8] 95 % of control | [1] 90 % of control | [4] 95 % of control | [2] 93 % of control | [5] 91 % of control

O=[N+]([O-])C1C2C=CC(C2)C1c1ccccc1 (stereo unspecified)
inactive: [1] 102 % of control | [4] 98 % of control | [2] 95 % of control | [5] 102 % of control | [3] 98 % of control | [6] 102 % of control

COc1cc([N+](=O)[O-])c(C)[n+]([O-])n1
inactive: [10] 96 % of control | [9] 104 % of control
